Consider 16 compounds from patent publication US7910739B2, “Acetylcholinesterase dual inhibitors” (priority 2003, dated 2011).

Where two headings read alike, the source gives them in different places. Some results are limits rather than exact numbers.

Series [1] concerns human neuroblastoma cell line SH-SY5Y. Briefly: Toxicity measurement (LDH release). Format: cell-based. Conditions: 24 hours exposure. As for the experimental part: The cytotoxicity effect of the molecules was tested in the human neuroblastoma cell line SH-SY5Y. These cells were cultured in 96-well plates in DULBECCO'S MOD EAGLE medium, supplemented with 10% fetal bovine serum and 1% penicillin/streptomycin, and grown in a 5% CO2 humidified incubator at 37° C.
The cells were plated at 10^4 cells for each well, at least, 48 hours before the toxicity measure. Cells were exposed for 24 hours to the compounds at different concentrations (from 10^−5 to 10^−9), quantitative assessment of cell death was made by measurement of the intracellular enzyme lactate dehydrogenase (LDH) (citotoxicity detection kit, Roche). The quantity of LDH was evaluated in a microplate reader Anthos 2010, at 492 and 620 nm. Controls were taken as 100% viability.
On the technique in general: Release of lactate dehydrogenase indicates damage to the cell membrane.

The target in a further series is T1, BuChE from human serum (Homo sapiens, UniProt P06276).
T1 construct: 0.01 unit BuChE from human serum; from tissue; host or cells: human serum
The series is described as follows: Butyrylcholinesterase (BuChE) inhibition, Ellman colorimetric method. It is filed as biochemical. As for the experimental part: Butyrylcholinesterase (BuChE) Inhibition (from Human Serum)
BuChE inhibitory activity was evaluated at 30° C. by the colorimetric method reported by Ellman. The assay solution consisted of 0.01 unit BuChE from human serum, 0.1 M sodium phosphate buffer pH 8, 0.3 mM 5,5′-dithiobis(2-nitrobenzoic acid) (DTNB, Ellman's reagent), and 0.5 mM butyrylthiocholine iodide as the substrate of the enzymatic reaction. Enzyme activity was determined by measuring the absorbance at 405 nm during 5 minutes with a microplate reader Digiscan 340T. The tested compounds were preincubated with the enzyme for 10 minutes at 30° C. The reaction rate was calculated with, at least, triplicate measurements. The IC50 is defined as the concentration of each compound that reduces a 50% the enzymatic activity with respect to that without inhibitor.

The target of series [2] is T2, AChE (from bovine erythrocytes) (Bos taurus, UniProt P23795).
T2 construct: 0.02 unit AChE (Sigma Chemical Co. from bovine erythrocytes); purchased Sigma Chemical Co; host or cells: bovine erythrocytes (natural source)
The series is described as follows: biochemical. Format: biochemical. As for the experimental part: Acetylcholinesterase (AChE) Inhibition (from Bovine Erythrocytes)
AChE inhibitory activity was evaluated at 30° C. by the colorimetric method reported by Ellman [Ellman, G. L.; Courtney, K. D.; Andres, B.; Featherstone, R. M. Biochem. Pharmacol. 1961, 7, 88-95]. The assay solution consisted of 0.1 M phosphate buffer pH 8, 0.3 mM 5,5′-dithiobis(2-nitrobenzoic acid) (DTNB, Ellman's reagent), 0.02 unit AChE (Sigma Chemical Co. from bovine erythrocytes), and 0.5 mM acetylthiocholine iodide as the substrate of the enzymatic reaction. The compounds tested were added to the assay solution and pre incubated with the enzyme for 5 min at 30° C. After that period, the substrate was added. […] The compound concentration producing 50% of AChE inhibition (IC50) was determined.

The next series addresses AChE peripheral site (Bos taurus, UniProt P23795). Briefly: Propidium competition (fluorescence). Conditions: 10 μM AchE, 20 μM propidium iodide, pH 8.0. It is filed as binding. The protocol: Fluorescence was measured in a Fluostar optima plate reader (BMG). Measurements were carried out in 100 μl solution volume, in 96-well plates. The buffer used wad 1 mM Tris/HCl, pH 8.0. 10 μM AchE was incubated, at least 6 hours, with the molecules at different concentrations. 20 μM propidium iodide was added 10 min before fluorescence measurement. The excitation wavelength was 485 nm, and that of emission, 620 nm.

Series [3] deals with T3, β-amyloid-huAChE aggregation complex (Homo sapiens, UniProt P22303).
T3 construct: purchased Sigma-Aldrich (huAChE); rPeptide (Aβ1-40)
Briefly: Inhibition of β-amyloid aggregation (Congo Red binding). Format: biochemical. The conditions noted are these: 50 μM propidium iodide as reference; Aβ1-40 0.1 mM, Aβ:huAChE 200:1, 48 hours. The protocol: Inhibition of β-Amyloid Aggregation
The generation of AChE-Aβ complexes were carried out as described previously [Alvarez, A et al. J. Neurosci., 1998, 18, 3213-3223; Muñoz, F. J.; Inestrosa, N. C. FEBS Let., 1999, 450, 205-209]. Stock solutions of Aβ1-40 (rPeptide, Georgia USA) at 3.5 mM were dissolved in PBS (pH 7.4) after HFIP treatment to obtain monomeric starting material, according to manufacture's recommendations. For co-incubation experiments, 0.1 mM of peptide was mixed with human recombinant acetylcholinesterase (huAchE, Sigma-Aldrich), in the same buffer at molar ratio Aβ:huAChE 200:1, and stirred for 48 hours in a microtiter plate at room temperature. The fibrils obtained were characterized by Congo Red (CR) binding.
For the inhibition of β-amyloid aggregation, the compounds tested were used at the IC50 defined in the previous paragraph of the biological evaluation, 50 μM propidium iodide was used as reference [Inestrosa, N. C et al., J. Neuron, 1996, 16, 881-891].
To quantify the amount of fibrils aggregated, the binding to CR was done as described [Klunk, W E.; Pettegrew, J W.; Abraham, D J. J. Hystochem Cytochem., 1989, 8, 1293-1297]. Briefly, 5.5 μl aliquot of the aggregation mixture was added to 132 μl of a 25 μM CR solution (100 mM phosphate buffer pH 7.4, 150 mM NaCl), and incubated for 30 minutes at room temperature. Absorbance was measured at 480 and 540 nm and the molarity of aggregates calculated by CR(M)=(A540/25295)−(A480/46306).

Setting [4] is: BuChE from human serum, 30° C., pH 8, read-out: IC50 BuChE.
Where [5] appears, read: AChE from bovine erythrocytes, 30° C., pH 8, read-out: IC50 AChE.

T1 sequence (P06276 29-602): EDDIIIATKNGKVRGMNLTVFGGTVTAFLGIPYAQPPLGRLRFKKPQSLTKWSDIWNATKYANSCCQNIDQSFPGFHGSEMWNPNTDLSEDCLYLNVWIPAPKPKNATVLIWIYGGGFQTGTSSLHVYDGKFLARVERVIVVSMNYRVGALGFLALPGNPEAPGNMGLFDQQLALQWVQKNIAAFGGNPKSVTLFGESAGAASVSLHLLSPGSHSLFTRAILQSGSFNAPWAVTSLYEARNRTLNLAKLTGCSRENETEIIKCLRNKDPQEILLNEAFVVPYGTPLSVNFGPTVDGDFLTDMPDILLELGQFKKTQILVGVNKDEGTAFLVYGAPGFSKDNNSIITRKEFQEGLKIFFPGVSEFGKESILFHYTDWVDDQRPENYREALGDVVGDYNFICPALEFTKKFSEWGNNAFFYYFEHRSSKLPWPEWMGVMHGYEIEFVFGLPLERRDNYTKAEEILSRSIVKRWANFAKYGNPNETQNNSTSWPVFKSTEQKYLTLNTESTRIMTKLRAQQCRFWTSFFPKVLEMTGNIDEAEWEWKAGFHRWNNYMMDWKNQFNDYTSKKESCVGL
T2 sequence (P23795 other isoform, or with tags, fused parts or gaps): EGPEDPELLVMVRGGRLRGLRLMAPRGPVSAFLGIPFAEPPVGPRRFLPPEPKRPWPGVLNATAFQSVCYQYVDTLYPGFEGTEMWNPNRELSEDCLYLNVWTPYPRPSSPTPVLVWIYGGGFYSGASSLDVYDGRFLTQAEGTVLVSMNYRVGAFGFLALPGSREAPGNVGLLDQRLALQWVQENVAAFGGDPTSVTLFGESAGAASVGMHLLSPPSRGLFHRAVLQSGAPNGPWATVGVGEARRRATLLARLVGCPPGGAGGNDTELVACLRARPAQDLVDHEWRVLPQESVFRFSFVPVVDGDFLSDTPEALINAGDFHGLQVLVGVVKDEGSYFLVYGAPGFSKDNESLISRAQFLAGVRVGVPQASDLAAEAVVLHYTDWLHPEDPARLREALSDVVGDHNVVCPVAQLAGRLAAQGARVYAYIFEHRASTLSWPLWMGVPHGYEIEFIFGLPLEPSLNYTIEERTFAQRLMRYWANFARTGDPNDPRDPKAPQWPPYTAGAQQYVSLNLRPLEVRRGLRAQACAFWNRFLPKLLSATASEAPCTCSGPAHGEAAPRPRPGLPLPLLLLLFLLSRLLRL
Sequence of AChE peripheral site (P23795 other isoform, or with tags, fused parts or gaps): as above
T3 sequence (P22303 32-614, one chain of several): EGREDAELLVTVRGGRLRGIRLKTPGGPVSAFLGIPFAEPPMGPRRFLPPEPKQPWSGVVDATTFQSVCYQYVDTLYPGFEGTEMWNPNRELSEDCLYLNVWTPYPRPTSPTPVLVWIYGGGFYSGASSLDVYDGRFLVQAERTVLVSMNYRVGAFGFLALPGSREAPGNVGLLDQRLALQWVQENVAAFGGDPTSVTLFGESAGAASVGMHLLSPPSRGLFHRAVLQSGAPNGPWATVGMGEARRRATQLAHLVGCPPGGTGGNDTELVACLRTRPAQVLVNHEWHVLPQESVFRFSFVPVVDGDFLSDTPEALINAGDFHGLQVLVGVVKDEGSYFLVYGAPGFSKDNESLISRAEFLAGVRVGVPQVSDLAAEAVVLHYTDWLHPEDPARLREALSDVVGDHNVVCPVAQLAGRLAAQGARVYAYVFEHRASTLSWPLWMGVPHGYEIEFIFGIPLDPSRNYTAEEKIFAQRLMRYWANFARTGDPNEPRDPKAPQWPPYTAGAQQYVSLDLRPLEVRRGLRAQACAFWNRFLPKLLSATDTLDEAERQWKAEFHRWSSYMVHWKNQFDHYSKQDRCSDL

Regarding `O=C(CCc1c[nH]c2ccccc12)NCCCCCCCCCCNc1c2c(nc3cc(Cl)ccc13)CCCC2` [Compound 7, N-[10-(6-Chloro-1,2,3,4-tetrahydro-acridin-9-ylamino)-decyl]-3-(1H-indol-3-yl)-propionamide], the Toxicity in series [1] is >100 µM. In addition, the 50% inhibitory concentration (IC50) at BuChE from human serum (setting [4]) turned out to be 54 nM; in series [2] (setting [5]) it was 21.9 nM. Also, the Propidium competition on AChE peripheral site came out at 10 µM.
On the same counts, the results for `CN(CCCNC(=O)CCc1c[nH]c2ccccc12)CCCNc1c2c(nc3cc(Cl)ccc13)CCCC2` [Compound 9, N-(3-{[3-(6-chloro-1,2,3,4-tetrahydro-acridin-9-ylamino)-propyl]-methyl-amino}-propyl)-3-(1H-indol-3-yl)-propionamide] are >100 µM, 7.57 nM, 2.88 nM and 10 µM.
As to `Clc1ccc2c(NCCc3c[nH]c4ccccc34)c3c(nc2c1)CCCC3` [Comparative Example, N-[2-3(Indolyl)ethyl]-6-chlorotacrine, reference compound], the IC50 in series [2] (setting [5]) is 537 nM.
In the case of `O=C(NCCCCCCNc1c2c(nc3cc(Cl)ccc13)CCCC2)c1c[nH]c2ccccc12` [Compound 11, 1H-Indole-3-carboxylic acid [6-(6-chloro-1,2,3,4-tetrahydro-acridin-9-ylamino)-hexyl]-amide], the Toxicity in series [1] was >10 µM. Moreover, the IC50 on BuChE from human serum (setting [4]) is 1.7 nM; in series [2] (setting [5]), 33 nM. Besides, the Propidium competition on AChE peripheral site worked out at 100 µM.
On the same counts, the results for `O=C(NCCCCCCCNc1c2c(nc3cc(Cl)ccc13)CCCC2)c1c[nH]c2ccccc12` [Compound 12, 1H-Indole-3-carboxylic acid [7-(6-chloro-1,2,3,4-tetrahydro-acridin-9-ylamino)-heptyl]-amide] are >10 µM, 19 nM, 36 nM and 100 µM.
For `O=C(Cc1c[nH]c2ccc(Br)cc12)NCCCCCCCNc1c2c(nc3cc(Cl)ccc13)CCCC2` [Compound 18, 2-(5-Bromo-1H-indol-3-yl)-N-[7-(6-chloro-1,2,3,4-tetrahydro-acridin-9-ylamino)-heptyl]-acetamide], the Toxicity in series [1] is >10 µM. Also, the IC50 stood at 1.7 nM on BuChE from human serum (setting [4]) and 0.63 nM in series [2]. Moreover, on AChE peripheral site, the Propidium competition was 100 µM.
For the compound `O=C(CCc1c[nH]c2ccccc12)NCCCCCCCCCNc1c2c(nc3cc(Cl)ccc13)CCCC2` [Compound 6, N-[9-(6-Chloro-1,2,3,4-tetrahydro-acridin-9-ylamino)-nonyl]-3-(1H-indol-3-yl)-propionamide], the Toxicity in series [1] is >100 µM. Besides, the IC50 at BuChE from human serum (setting [4]) is 9.6 nM. Moreover, on AChE peripheral site, the Propidium competition is >100 µM.
Turning to `O=C(CCc1c[nH]c2ccccc12)NCCCCCNc1c2c(nc3ccccc13)CCCC2` [Compound 2, 3-(1H-Indol-3-yl)-N-[5-(1,2,3,4-tetrahydro-acridin-9-ylamino)-pentyl]-propionamide], the Toxicity in series [1] was >100 µM. Besides, the IC50 worked out at 1 nM at BuChE from human serum (setting [4]) and 70 nM in series [2] (setting [5]). At AChE peripheral site, this compound yielded a Propidium competition of 10 µM.
On to `O=C(NCCCCCCNc1c2c(nc3cc(Cl)ccc13)CCCC2)OCCc1c[nH]c2ccccc12` [Compound 24, [6-(6-Chloro-1,2,3,4-tetrahydro-acridin-9-ylamino)-hexyl]-carbamic Acid 2-(1h-indol-3-yl)ethyl Ester], for which the Toxicity in series [1] was >10 µM. The results for the 50% inhibitory concentration (IC50) (on BuChE from human serum; in series [2] (setting [5])) were 3.2 nM and 0.7 nM, respectively. This compound registered a Propidium competition at AChE peripheral site of 100 µM.
Take `CC[N+](C)(CC)CCC[n+]1c(-c2ccccc2)c2cc(N)ccc2c2ccc(N)cc21` [propidium iodide, reference compound]: the “reduction in the β-amyloid-huAChE aggregation complex” value in series [3] was 10%.
For the compound `O=C(CCc1c[nH]c2ccccc12)NCCCCCCCNc1c2c(nc3cc(Cl)ccc13)CCCC2` [Compound 4, N-[7-(6-Chloro-1,2,3,4-tetrahydro-acridin-9-ylamino)-heptyl]-3-(1H-indol-3-yl)-propionamide], the Toxicity in series [1] was 10 µM. For the same compound, the values for the 50% inhibitory concentration (IC50) (on BuChE from human serum (setting [4]); in series [2] (setting [5])) were 0.1 nM and 0.06 nM, respectively. The compound further showed a Propidium competition on AChE peripheral site of 10 µM.
Compound `O=C(CCc1c[nH]c2ccccc12)NCCCCCCCCNc1c2c(nc3cc(Cl)ccc13)CCCC2` [Compound 5, N-[8-(6-Chloro-1,2,3,4-tetrahydro-acridin-9-ylamino)-octyl]-3-(1H-indol-3-yl)propionamide] came in with a Toxicity in series [1] of 10 µM. Besides, the half-maximal inhibitory concentration (IC50) on BuChE from human serum (setting [4]) came out at 5.7 nM; in series [2] (setting [5]), 0.5 nM. The same compound yielded a Propidium competition at AChE peripheral site of 10 µM.
In the case of `O=C(NCCCCCCCNc1c2c(nc3cc(Cl)ccc13)CCCC2)c1n[nH]c2ccccc12` [Compound 21, 1H-Indazole-3-carboxylic acid [7-(6-chloro-1,2,3,4-tetrahydroacridin-9-ylamino)heptyl]-amide], the Toxicity in series [1] is >10 µM. Further, the half-maximal inhibitory concentration (IC50) is 79 nM on BuChE from human serum (setting [4]) and 95 nM in series [2] (setting [5]). Further, at AChE peripheral site, the Propidium competition is 100 µM.
The corresponding values for `O=C(CCCc1c[nH]c2ccccc12)NCCCCCCNc1c2c(nc3cc(Cl)ccc13)CCCC2` [Compound 16, N-[6-(6-Chloro-1,2,3,4-tetrahydro-acridin-9-ylamino)-hexyl]4-(1H-Indol-3-yl)-butyramide] are >10 µM, 5.6 nM, 0.48 nM and 100 µM.
On the same counts, the results for `O=C(NCCCCCCCCNc1c2c(nc3cc(Cl)ccc13)CCCC2)c1c[nH]c2ccccc12` [Compound 13, 1H-Indole-3-carboxylic acid [8-(6-chloro-1,2,3,4-tetrahydro-acridin-9-ylamino)octyl]-amide] are >10 µM, 22.4 nM, 46 nM and 10 µM.
Consider `O=C(NCCCCCNc1c2c(nc3cc(Cl)ccc13)CCCC2)c1c[nH]c2ccccc12` [Compound 10, 1H-Indole-3-carboxylic acid [5-(6-chloro-1,2,3,4-tetrahydro-acridin-9-ylamino)-pentyl]-amide], for which the Toxicity in series [1] is >10 µM. Moreover, the concentration for half-maximal inhibition (IC50) on BuChE from human serum (setting [4]) was found to be 9.5 nM; in series [2] (setting [5]), 180 nM. Besides, the Propidium competition on AChE peripheral site was 100 µM.

By IC50 is commonly meant the concentration needed to halve the response being measured.
